Read-outs that look alike come from different tables or passages of the source.
Key:
JAK3 = biological target: T1, JAK3 (Homo sapiens, UniProt P52333); experiment: Inhibition of a panel of kinases, in vitro HotSpot kinase assay: JAK3; format: biochemical; conditions: 1 μM ATP, read-out: JAK3 (IC50)
T1 sequence (P52333 1-1124): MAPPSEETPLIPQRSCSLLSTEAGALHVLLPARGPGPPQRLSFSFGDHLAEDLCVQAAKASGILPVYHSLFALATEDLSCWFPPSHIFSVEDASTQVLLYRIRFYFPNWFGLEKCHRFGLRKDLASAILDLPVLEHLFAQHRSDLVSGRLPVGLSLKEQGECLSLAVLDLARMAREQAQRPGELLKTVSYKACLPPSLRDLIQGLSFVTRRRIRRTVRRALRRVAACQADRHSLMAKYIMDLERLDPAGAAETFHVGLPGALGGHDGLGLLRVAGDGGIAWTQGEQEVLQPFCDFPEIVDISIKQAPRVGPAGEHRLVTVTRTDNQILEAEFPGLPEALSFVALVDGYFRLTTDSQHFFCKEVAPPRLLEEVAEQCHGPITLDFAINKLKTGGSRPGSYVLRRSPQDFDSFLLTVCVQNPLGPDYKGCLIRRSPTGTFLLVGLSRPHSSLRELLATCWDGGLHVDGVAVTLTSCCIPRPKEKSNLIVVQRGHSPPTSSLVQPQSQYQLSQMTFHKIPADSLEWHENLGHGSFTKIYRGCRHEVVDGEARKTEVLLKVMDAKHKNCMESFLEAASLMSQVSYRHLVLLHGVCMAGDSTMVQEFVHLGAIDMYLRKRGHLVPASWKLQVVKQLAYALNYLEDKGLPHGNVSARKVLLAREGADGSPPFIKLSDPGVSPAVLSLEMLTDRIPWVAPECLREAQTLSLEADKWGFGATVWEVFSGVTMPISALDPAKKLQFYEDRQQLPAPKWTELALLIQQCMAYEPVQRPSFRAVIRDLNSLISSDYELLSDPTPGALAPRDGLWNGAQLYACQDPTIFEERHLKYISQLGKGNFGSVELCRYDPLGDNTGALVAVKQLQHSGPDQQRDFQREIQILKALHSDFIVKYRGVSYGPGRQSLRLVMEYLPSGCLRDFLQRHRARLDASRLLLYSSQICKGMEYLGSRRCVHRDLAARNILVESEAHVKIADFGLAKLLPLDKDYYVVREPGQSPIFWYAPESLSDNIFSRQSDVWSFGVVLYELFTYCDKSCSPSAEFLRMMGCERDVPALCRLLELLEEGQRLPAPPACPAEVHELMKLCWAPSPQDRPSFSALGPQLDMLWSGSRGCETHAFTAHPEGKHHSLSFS

BTK-WT = biological target: T2, BTK-WT (Homo sapiens, UniProt Q06187); experiment: Btk in vitro inhibitory activity (one of Method A TR-FRET, Method B electrophoretic mobility shift, Method C radiometric filter binding); format: biochemical; conditions: read-out: BTK-WT (IC50)
T2 construct: purified from insect cells as a full-length construct containing an N-terminal 6X-His tag; His6 (N); made in house; host or cells: insect cells (baculovirus Sf21 in Method B)
T2 sequence (Q06187 whole entry): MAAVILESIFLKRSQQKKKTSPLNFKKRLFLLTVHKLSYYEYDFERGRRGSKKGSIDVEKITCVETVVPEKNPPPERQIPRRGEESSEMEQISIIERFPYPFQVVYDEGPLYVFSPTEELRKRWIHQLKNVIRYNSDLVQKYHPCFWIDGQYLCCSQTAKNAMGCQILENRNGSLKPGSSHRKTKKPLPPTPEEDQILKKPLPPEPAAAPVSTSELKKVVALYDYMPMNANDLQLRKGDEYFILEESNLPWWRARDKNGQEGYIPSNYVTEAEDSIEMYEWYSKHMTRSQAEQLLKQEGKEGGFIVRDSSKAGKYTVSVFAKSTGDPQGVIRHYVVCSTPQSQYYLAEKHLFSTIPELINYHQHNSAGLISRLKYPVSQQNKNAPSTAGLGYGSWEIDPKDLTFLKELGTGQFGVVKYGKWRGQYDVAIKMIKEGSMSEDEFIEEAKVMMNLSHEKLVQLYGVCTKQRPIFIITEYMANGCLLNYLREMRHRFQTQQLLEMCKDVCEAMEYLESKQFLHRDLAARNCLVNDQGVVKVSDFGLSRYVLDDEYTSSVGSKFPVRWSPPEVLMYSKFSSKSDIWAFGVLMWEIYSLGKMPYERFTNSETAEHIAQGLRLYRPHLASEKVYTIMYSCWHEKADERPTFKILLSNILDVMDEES

IC50 (JAK3; Table 10, Formula A-I)	IC50 (BTK-WT; Table 10, Formula A-I)	IC50 (JAK3; Table 12, Formula C-I)	IC50 (BTK-WT; Table 12, Formula C-I)	SMILES
> 10000 nM	100 to 1000 nM	–	–	Cc1cc(Nc2nc(N3CCC[C@@H](NC(=O)c4ccc(N(C)C)cc4)[C@@H]3CO)cnc2C(N)=O)sn1 [Example A-69, 5-[(2R,3R)-3-[4-(dimethylamino)benzamido]-2-(hydroxymethyl)piperidin-1-yl]-3-[(3-methyl-1,2-thiazol-5-yl)amino]pyrazine-2-carboxamide]
1000 to 10000 nM	≤ 100 nM	–	–	Cc1cc(Nc2nc(N3CCC[C@@H](NC(=O)c4ccc(C(C)C)cc4)[C@H]3C)cnc2C(N)=O)sn1 [Example A-56, 3-[(3-methyl-1,2-thiazol-5-yl)amino]-5-[(2R,3R)-2-methyl-3-[4-(propan-2-yl)benzamido]piperidin-1-yl]pyrazine-2-carboxamide]
> 10000 nM	100 to 1000 nM	–	–	Cc1cc(Nc2nc(N3CCC[C@H](NC(=O)c4ccc(N(C)C)cc4)[C@H]3CO)cnc2C(N)=O)sn1 [Example A-70, 5-[(2S,3S)-3-[4-(dimethylamino)benzamido]-2-(hydroxymethyl)piperidin-1-yl]-3-[(3-methyl-1,2-thiazol-5-yl)amino]pyrazine-2-carboxamide]
100 to 1000 nM	≤ 100 nM	–	–	Cc1cc(Nc2nc(N3CCC[C@@H](NC(=O)c4ccc(N(C)C)cc4)[C@H]3C)cnc2C(N)=O)sn1 [Example A-55, 5-[(2R,3R)-3-[4-(dimethylamino)benzamido]-2-methylpiperidin-1-yl]-3-[(3-methyl-1,2-thiazol-5-yl)amino]pyrazine-2-carboxamide]
1000 to 10000 nM	≤ 100 nM	–	–	Cc1cc(Nc2nc(N3CCCC(CNC(=O)c4ccc(N(C)C)cc4)C3)cnc2C(N)=O)sn1 (stereo not drawn) [Example A-80]

Second part, the molecule before the results:

SMILES	IC50 (JAK3; Table 10, Formula A-I)	IC50 (BTK-WT; Table 10, Formula A-I)	IC50 (JAK3; Table 12, Formula C-I)	IC50 (BTK-WT; Table 12, Formula C-I)
CCn1cc2cc(C(=O)N[C@@H]3CCCN(c4cnc(C(N)=O)c(Nc5cc(C)ns5)n4)C3)ccc2n1 [Example A-38, N-[(3R)-1-{5-carbamoyl-6-[(3-methyl-1,2-thiazol-5-yl)amino]pyrazin-2-yl}piperidin-3-yl]-2-ethyl-2H-indazole-5-carboxamide]	1000 to 10000 nM	≤ 100 nM	–	–
Cc1cc(Nc2nc(N3CCC[C@@H](NC(=O)c4ccc(C5CC5)c(F)c4)C3)cnc2C(N)=O)sn1 [Example A-73, 5-[(3R)-3-(4-cyclopropyl-3-fluorobenzamido)piperidin-1-yl]-3-[(3-methyl-1,2-thiazol-5-yl)amino]pyrazine-2-carboxamide]	1000 to 10000 nM	≤ 100 nM	–	–
CC(C)c1ccc(C(=O)N[C@@H]2CCCN(c3cnc(C(N)=O)c(Nc4ccc(CN(C)C)cc4)n3)C2)cc1 [Example A-83, 3-({4-[(dimethylamino)methyl]phenyl}amino)-5-[(3R)-3-[4-(propan-2-yl)benzamido]piperidin-1-yl]pyrazine-2-carboxamide]	1000 to 10000 nM	≤ 100 nM	–	–
Cc1cc(Nc2nc(N(C)[C@H]3CCCN(C(=O)c4ccc(N(C)C)cc4)C3)cnc2C(N)=O)sn1 [Example C-9, 5-{[(3S)-1-[4-(dimethylamino)benzoyl]piperidin-3-yl](methyl)amino}-3-[(3-methyl-1,2-thiazol-5-yl)amino]pyrazine-2-carboxamide]	–	–	> 10000 nM	1000 to 10000 nM
Cc1cc(Nc2nc(N3CCCC(CNC(=O)c4ccccc4)C3)cnc2C(N)=O)sn1 (stereo not drawn) [Example A-79, 3-[(3-methyl-1,2-thiazol-5-yl)amino]-5-{3-[(phenylformamido)methyl]piperidin-1-yl}pyrazine-2-carboxamide]	1000 to 10000 nM	≤ 100 nM	–	–
Cc1cc(Nc2nc(N3CCC[C@@H](NC(=O)c4ccc(C(C)(C)C)cc4)C3)cnc2C(N)=O)sn1 [Example A-37, 5-[(3R)-3-(4-tert-butylbenzamido)piperidin-1-yl]-3-[(3-methyl-1,2-thiazol-5-yl)amino]pyrazine-2-carboxamide]	> 10000 nM	≤ 100 nM	–	–
C[C@@H]1[C@H](NC(=O)c2ccc(C3CC3)cc2F)CCCN1c1cnc(C(N)=O)c(Nc2ccc(N3CCN(C)CC3)cc2)n1 [Example A-81, 5-[(2R,3R)-3-(4-cyclopropyl-2-fluorobenzamido)-2-methylpiperidin-1-yl]-3-{[4-(4-methylpiperazin-1-yl)phenyl]amino}pyrazine-2-carboxamide]	1000 to 10000 nM	≤ 100 nM	–	–
